Data as given in patent publication US9050341B2, “Methods of treating drug resistant and other tumors by administering 6,7-dialkoxy quinazoline derivatives” (NATCO PHARMA LIMITED, priority 2009, dated 2015).

Legend:
ABL1 (E255K) = molecular target: T1, ABL1 (E255K) (Homo sapiens, UniProt P00519, E255K); assay: KinomeScan kinase profiling; assay type: binding
T1 construct: host or cells: E. coli host derived from BL21 (T7 phage lysate)
Procedure, shortened: (§1)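 Kinases were expressed as T7 phage fusions in a BL21-derived E. coli host and the cleared lysates were used. Ligand beads were blocked with biotin and buffer (1% BSA, 0.05% Tween 20, 1 mM DTT). Compounds came from 40× DMSO stocks, and phage in the eluates was titred by qPCR.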

AMPK-alpha1 = molecular target: T2, AMPK-alpha1 (Homo sapiens, UniProt Q13131); assay: KinomeScan kinase profiling; assay type: binding
T2 construct: host or cells: E. coli host derived from BL21 (T7 phage lysate)
Procedure, shortened: as §1

BIKE = molecular target: T3, BIKE (Homo sapiens, UniProt Q9NSY1); assay: KinomeScan kinase profiling; assay type: binding
T3 construct: purchased Ambit Biosciences Corp (KinomeScan); host or cells: E. coli host derived from the BL21 strain, T7 phage
T3 sequence (Q9NSY1 whole entry): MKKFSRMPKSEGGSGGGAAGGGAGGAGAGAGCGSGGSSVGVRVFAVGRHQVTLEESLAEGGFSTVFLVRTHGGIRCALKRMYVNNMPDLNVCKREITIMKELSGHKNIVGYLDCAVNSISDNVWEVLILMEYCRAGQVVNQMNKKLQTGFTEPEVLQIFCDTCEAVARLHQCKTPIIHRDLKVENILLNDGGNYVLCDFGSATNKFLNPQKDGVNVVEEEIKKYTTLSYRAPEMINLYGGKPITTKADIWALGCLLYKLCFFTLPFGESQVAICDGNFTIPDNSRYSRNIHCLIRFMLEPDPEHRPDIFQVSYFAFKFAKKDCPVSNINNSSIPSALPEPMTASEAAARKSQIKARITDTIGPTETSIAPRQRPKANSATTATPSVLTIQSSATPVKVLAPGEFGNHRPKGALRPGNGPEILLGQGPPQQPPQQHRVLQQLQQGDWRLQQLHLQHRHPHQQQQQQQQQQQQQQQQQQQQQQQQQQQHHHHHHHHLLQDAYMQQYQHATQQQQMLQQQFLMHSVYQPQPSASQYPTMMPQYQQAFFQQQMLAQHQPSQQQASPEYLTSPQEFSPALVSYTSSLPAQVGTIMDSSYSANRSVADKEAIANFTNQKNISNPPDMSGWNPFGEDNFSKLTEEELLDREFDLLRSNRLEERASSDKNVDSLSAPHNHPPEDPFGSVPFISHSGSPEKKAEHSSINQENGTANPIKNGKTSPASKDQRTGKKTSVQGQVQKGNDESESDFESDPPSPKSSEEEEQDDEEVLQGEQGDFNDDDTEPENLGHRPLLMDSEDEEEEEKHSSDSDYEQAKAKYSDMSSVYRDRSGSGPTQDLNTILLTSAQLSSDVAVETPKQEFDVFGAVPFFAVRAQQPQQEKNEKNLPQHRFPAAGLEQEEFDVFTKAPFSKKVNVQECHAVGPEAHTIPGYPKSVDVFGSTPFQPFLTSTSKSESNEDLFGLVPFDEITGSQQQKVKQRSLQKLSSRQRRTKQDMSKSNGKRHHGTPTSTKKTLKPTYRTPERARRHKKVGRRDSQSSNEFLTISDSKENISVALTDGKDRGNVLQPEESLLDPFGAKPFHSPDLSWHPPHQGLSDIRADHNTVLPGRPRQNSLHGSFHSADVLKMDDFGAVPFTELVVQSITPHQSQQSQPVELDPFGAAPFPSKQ
Procedure, shortened: as §1

CDK11 = molecular target: T4, CDK11 (Homo sapiens, UniProt Q9BWU1); assay: KinomeScan kinase profiling; assay type: binding
T4 construct: host or cells: T7 phage in E. coli (BL21-derived)
T4 sequence (Q9BWU1 whole entry): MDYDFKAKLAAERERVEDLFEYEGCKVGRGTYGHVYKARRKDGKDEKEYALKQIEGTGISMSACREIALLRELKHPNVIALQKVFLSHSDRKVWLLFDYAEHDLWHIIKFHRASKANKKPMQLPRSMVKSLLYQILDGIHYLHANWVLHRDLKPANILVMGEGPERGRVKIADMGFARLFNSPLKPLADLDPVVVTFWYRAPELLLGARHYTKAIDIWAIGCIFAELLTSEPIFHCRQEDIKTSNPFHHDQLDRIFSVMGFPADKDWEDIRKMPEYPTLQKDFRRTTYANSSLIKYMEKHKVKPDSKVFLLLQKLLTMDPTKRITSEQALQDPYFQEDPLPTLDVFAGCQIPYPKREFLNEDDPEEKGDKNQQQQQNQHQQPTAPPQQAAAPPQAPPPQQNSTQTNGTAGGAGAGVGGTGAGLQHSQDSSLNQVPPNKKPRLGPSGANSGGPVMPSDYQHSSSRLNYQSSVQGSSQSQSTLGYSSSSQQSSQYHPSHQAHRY
Procedure, shortened: as §1

CDK7 = molecular target: T5, CDK7 (Homo sapiens, UniProt P50613); assay: KinomeScan kinase profiling; assay type: binding
T5 construct: host or cells: T7 phage in E. coli (BL21-derived)
Procedure, shortened: as §1

EGFR = molecular target: T6, EGFR (Homo sapiens, UniProt P00533); assay: KinomeScan kinase profiling; assay type: binding
T6 construct: purchased Ambit Biosciences Corp (KinomeScan); host or cells: T7 phage in E. coli host derived from BL21
Procedure, shortened: as §1

NDR2 = molecular target: T7, NDR2 (Homo sapiens, UniProt Q9Y2H1); assay: KinomeScan kinase profiling; assay type: binding
T7 construct: host or cells: T7 phage in E. coli host derived from BL21
T7 sequence (Q9Y2H1 whole entry): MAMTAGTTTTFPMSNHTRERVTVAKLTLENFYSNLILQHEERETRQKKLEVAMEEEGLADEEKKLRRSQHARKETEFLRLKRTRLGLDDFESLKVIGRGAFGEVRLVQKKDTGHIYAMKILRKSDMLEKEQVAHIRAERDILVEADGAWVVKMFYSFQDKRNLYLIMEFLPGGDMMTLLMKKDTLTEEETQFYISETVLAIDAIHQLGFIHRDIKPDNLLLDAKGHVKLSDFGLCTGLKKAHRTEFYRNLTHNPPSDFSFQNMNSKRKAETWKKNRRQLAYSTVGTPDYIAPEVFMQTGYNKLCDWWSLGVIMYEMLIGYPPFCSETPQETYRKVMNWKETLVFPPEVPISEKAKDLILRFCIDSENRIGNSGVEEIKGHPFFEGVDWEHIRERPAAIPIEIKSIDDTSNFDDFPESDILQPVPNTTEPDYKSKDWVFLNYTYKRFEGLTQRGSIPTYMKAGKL
Procedure, shortened: as §1

NEK9 = molecular target: T8, NEK9 (Homo sapiens, UniProt Q8TD19); assay: KinomeScan kinase profiling; assay type: binding
T8 construct: host or cells: T7 phage in E. coli host derived from BL21
Procedure, shortened: as §1

PHKG1 = molecular target: T9, PHKG1 (Homo sapiens, UniProt Q16816); assay: KinomeScan kinase profiling; assay type: binding
T9 construct: host or cells: E. coli host derived from the BL21 strain, infected with T7 phage
Procedure, shortened: as §1

PIP5K1A = molecular target: T10, PIP5K1A (Homo sapiens, UniProt Q99755); assay: KinomeScan kinase profiling; assay type: binding
T10 construct: purchased Ambit Biosciences Corp (KinomeScan); host or cells: E. coli host derived from BL21, infected with T7 phage
Procedure, shortened: as §1

RIPK1 = molecular target: T11, RIPK1 (Homo sapiens, UniProt Q13546); assay: KinomeScan kinase profiling; assay type: binding
T11 construct: host or cells: E. coli host derived from BL21, T7 phage lysate
Procedure, shortened: as §1

AKT2 = molecular target: T12, AKT2 (Homo sapiens, UniProt P31751); assay: KinomeScan kinase profiling; assay type: binding
T12 construct: host or cells: E. coli host derived from BL21 (T7 phage lysate)
T12 sequence (P31751 whole entry): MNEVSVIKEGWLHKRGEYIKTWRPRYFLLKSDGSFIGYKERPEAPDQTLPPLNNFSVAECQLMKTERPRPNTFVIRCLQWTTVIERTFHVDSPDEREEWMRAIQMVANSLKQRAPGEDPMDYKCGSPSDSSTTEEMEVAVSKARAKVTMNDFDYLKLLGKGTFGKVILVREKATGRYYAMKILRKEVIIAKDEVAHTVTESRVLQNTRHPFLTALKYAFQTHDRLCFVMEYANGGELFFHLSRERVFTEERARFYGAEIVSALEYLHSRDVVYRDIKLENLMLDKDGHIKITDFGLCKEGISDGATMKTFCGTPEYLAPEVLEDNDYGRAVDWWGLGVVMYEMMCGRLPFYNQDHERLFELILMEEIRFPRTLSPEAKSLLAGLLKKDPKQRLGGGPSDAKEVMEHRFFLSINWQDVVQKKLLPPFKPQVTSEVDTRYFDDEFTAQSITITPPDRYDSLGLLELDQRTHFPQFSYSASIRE

CAMK2G = molecular target: T13, CAMK2G (Homo sapiens, UniProt Q13555); assay: KinomeScan kinase profiling; assay type: binding
T13 construct: purchased Ambit Biosciences Corp (KinomeScan); host or cells: E. coli host derived from the BL21 strain, T7 phage

CDK2 = molecular target: T14, CDK2 (Homo sapiens, UniProt P24941); assay: KinomeScan kinase profiling; assay type: binding
T14 construct: host or cells: T7 phage in E. coli (BL21-derived)

CSNK1G3 = molecular target: T15, CSNK1G3 (Homo sapiens, UniProt Q9Y6M4); assay: KinomeScan kinase profiling; assay type: binding
T15 construct: purchased Ambit Biosciences Corp (KinomeScan); host or cells: T7 phage in E. coli host derived from BL21
T15 sequence (Q9Y6M4 whole entry): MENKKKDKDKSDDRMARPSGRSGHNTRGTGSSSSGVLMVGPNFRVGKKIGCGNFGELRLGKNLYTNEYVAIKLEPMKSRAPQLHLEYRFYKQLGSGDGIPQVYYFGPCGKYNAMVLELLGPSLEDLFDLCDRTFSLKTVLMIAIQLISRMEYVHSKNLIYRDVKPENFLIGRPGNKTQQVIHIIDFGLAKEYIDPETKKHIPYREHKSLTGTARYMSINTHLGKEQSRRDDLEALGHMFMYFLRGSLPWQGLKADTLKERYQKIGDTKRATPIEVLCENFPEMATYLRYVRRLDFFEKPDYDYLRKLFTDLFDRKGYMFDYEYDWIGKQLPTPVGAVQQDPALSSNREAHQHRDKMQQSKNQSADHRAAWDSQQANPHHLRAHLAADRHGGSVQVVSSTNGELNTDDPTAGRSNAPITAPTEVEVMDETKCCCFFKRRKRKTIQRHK

DYRK1B = molecular target: T16, DYRK1B (Homo sapiens, UniProt Q9Y463); assay: KinomeScan kinase profiling; assay type: binding
T16 construct: purchased Ambit Biosciences Corp (KinomeScan); host or cells: T7 phage in E. coli host derived from BL21
T16 sequence (Q9Y463 whole entry): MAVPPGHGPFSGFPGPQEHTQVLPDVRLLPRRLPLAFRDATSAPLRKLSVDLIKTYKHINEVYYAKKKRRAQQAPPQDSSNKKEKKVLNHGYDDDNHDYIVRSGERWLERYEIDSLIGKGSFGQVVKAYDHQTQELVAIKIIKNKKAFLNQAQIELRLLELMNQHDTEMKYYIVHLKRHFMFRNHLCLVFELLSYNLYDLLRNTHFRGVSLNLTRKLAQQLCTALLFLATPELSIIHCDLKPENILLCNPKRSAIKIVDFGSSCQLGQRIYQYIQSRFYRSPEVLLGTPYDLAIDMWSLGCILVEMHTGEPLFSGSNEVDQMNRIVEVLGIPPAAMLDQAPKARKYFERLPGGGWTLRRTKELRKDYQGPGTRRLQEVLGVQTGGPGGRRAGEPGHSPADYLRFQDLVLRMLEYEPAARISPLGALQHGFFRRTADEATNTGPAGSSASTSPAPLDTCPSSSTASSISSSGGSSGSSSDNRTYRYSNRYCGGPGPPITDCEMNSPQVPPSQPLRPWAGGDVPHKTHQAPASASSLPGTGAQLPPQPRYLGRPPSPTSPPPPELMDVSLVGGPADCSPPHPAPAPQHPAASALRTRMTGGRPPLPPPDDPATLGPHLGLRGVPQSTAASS

MARK3 = molecular target: T17, MARK3 (Homo sapiens, UniProt P27448); assay: KinomeScan kinase profiling; assay type: binding
T17 construct: host or cells: E. coli derived from BL21, infected with T7 phage
T17 sequence (P27448 whole entry): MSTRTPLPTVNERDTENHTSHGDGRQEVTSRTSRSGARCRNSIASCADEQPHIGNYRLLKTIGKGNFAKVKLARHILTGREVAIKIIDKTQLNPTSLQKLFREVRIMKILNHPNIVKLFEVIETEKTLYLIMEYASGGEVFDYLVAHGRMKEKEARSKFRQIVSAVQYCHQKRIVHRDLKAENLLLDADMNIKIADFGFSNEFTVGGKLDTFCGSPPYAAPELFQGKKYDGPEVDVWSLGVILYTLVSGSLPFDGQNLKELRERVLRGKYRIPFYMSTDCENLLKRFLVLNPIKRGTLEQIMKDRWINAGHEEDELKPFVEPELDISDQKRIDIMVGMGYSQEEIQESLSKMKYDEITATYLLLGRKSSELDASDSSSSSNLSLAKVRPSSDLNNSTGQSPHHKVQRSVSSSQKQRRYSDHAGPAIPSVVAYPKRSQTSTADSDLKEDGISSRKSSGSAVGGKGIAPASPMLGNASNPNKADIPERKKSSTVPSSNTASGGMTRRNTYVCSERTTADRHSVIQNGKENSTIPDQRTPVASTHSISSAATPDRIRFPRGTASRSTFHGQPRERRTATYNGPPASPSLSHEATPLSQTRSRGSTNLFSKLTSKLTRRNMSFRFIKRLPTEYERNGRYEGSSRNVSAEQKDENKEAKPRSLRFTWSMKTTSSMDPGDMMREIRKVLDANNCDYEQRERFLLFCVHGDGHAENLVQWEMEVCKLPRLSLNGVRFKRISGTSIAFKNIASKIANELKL

MLK3 = molecular target: T18, MLK3 (Homo sapiens, UniProt Q16584); assay: KinomeScan kinase profiling; assay type: binding
T18 construct: host or cells: T7 phage in E. coli host derived from BL21

PDPK1 = molecular target: T19, PDPK1 (Homo sapiens, UniProt O15530); assay: KinomeScan kinase profiling; assay type: binding
T19 construct: host or cells: E. coli host derived from the BL21 strain, infected with T7 phage
T19 sequence (O15530 whole entry): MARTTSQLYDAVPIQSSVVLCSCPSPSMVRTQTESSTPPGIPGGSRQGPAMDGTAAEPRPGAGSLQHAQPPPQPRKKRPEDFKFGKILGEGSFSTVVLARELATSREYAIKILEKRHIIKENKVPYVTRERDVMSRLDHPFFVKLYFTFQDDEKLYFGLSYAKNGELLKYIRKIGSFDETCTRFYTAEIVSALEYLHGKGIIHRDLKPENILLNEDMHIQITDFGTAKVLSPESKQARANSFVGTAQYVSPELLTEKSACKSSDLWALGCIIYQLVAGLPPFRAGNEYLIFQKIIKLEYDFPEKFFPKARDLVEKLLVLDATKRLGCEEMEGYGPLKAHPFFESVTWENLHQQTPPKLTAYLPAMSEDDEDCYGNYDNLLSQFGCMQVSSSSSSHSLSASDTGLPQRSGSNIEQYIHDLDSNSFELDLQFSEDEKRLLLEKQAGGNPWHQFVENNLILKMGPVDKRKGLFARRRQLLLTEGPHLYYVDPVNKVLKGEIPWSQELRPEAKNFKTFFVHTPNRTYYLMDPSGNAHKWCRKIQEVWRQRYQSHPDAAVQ

PKAC-alpha = molecular target: T20, PKAC-alpha (Homo sapiens, UniProt P17612); assay: KinomeScan kinase profiling; assay type: binding
T20 construct: purchased Ambit Biosciences Corp (KinomeScan); host or cells: E. coli host derived from BL21, infected with T7 phage

ROS1 = molecular target: T21, ROS1 (Homo sapiens, UniProt P08922); assay: KinomeScan kinase profiling; assay type: binding
T21 construct: host or cells: E. coli host derived from BL21, T7 phage lysate

STK33 = molecular target: T22, STK33 (Homo sapiens, UniProt Q9BYT3); assay: KinomeScan kinase profiling; assay type: binding
T22 construct: host or cells: E. coli host derived from the BL21 strain, T7 phage lysate

hERG channel = hERG channel (Homo sapiens, UniProt Q12809); assay: hERG whole cell patch-clamp in CHO cells; conditions: 10 μM
Method: The test compound was evaluated at 10 μM in 0.1% DMSO (v/v). […] The vehicle control was 0.1% (v/v) DMSO in EC solution.
The selection medium was F-12 (Ham)+GlutaMAX, Ph 7.2, 10% FBS, Penicillin (100 U/mL), Streptomycin (100 μg/mL), Blasticidin S HCL (30 μg/mL) and Hygromycin B (400 μg/mL). The growth medium was F-12 (Ham)+GlutaMAX, 10% FBS, Penicillin (100 U/mL) and Streptomycin (100 μg/mL). The induction medium was F-12 (Ham)+GlutaMAX, 10% FBS, Penicillin (100 U/mL) and Streptomycin (100 μg/mL) and Doxycycline (3 μg/mL). The cell dissociation solution was 0.05% Trypsin-EDTA.

With C#Cc1cccc(Nc2ncnc3cc(OC)c(OCCCN4CCOCC4)cc23)c1 [NRC-2694, N-(3-ethylnylphenyl)-7-methoxy-6-[3-(4-morpholinyl)propoxy]-4-quinazolinamine] the “% Ctrl @ 10000 nM” value (ABL1 (E255K)) was 80 % Ctrl, the “% Ctrl @ 10000 nM” value (AMPK-alpha1) was 50 % Ctrl and the “% Ctrl @ 10000 nM” value (BIKE) was 36 % Ctrl. The “% Ctrl @ 10000 nM” value (CDK11) was 87 % Ctrl, the “% Ctrl @ 10000 nM” value (CDK7) was 0.55 % Ctrl and the “% Ctrl @ 10000 nM” value (EGFR) was 0 % Ctrl. For the same compound, the “% Ctrl @ 10000 nM” value (NDR2) was 74 % Ctrl, the “% Ctrl @ 10000 nM” value (NEK9) was 85 % Ctrl and the “% Ctrl @ 10000 nM” value (PHKG1) was 50 % Ctrl. For the same compound, the “% Ctrl @ 10000 nM” value (PIP5K1A) was 61 % Ctrl, the “% Ctrl @ 10000 nM” value (RIPK1) was 100 % Ctrl and the “% Ctrl @ 10000 nM” value (AKT2) was 100 % Ctrl. For the same compound, the “% Ctrl @ 10000 nM” value (CAMK2G) was 58 % Ctrl, the “% Ctrl @ 10000 nM” value (CDK2) was 94 % Ctrl and the “% Ctrl @ 10000 nM” value (CSNK1G3) was 61 % Ctrl. The “% Ctrl @ 10000 nM” value (DYRK1B) was 66 % Ctrl, the “% Ctrl @ 10000 nM” value (MARK3) was 62 % Ctrl and the “% Ctrl @ 10000 nM” value (MLK3) was 72 % Ctrl. The “% Ctrl @ 10000 nM” value (PDPK1) was 94 % Ctrl, the “% Ctrl @ 10000 nM” value (PKAC-alpha) was 100 % Ctrl and the “% Ctrl @ 10000 nM” value (ROS1) was 46 % Ctrl. The “% Ctrl @ 10000 nM” value (STK33) was 43 % Ctrl and the “hERG channel, conclusion” value (hERG channel) was “an inhibitor of the hERG channel”.
